For data set [1], the system named is wild type Drosophila. Kind of data set: Egg-to-adult viability of wild type flies. It is filed as in vivo. The conditions noted are these: fly food containing 10 or 50 µM peptide, 21.5 °C; 3 independent experiments. Here is the method:
Flies were raised at 21.5 °C on cornmeal medium supplemented with dry yeast. Fly lines bearing UAS-DsRed CAG0 and UAS-DsRed CAG100 were kind gifts of Professor Nancy Bonini (University of Pennsylvania, USA). The gmr-GAL4 fly line was obtained from Bloomington Drosophila Stock Center. For pseudopupil assay, third instar larvae were fed with various amount of respective peptides dissolved in 2% sucrose solution for 2 hr and then continued to culture in standard fly food at 21.5 °C[38]. Pseudopupil assay was performed on 12 day-old adult flies as mentioned previously. Images were captured by SPOT Insight CCD camera controlled by the SPOT Advanced software (Diagnostic instruments Inc.). Image processing was performed using the Adobe Photoshop CS software (Adobe). Each experiment was repeated at least 3 times (n = 10 fly heads), and consistent results were obtained. […] Viability from egg-to-adult was calculated as the number of adult flies collected divided by the number of eggs examined. […]
viability of wild type Drosophila from egg to adult. […] Viability from egg to adult was calculated as the number of adult flies collected divided by the number of eggs examined. Data are expressed as mean ± S.E.M. for 3 independent experiments. […]

Data set [2] deals with DsRed CAG0 Drosophila. Kind of data set: Pseudopupil assay in control flies (toxicity). It is filed as in vivo. The conditions noted are these: P3V8 at up to 50 µM. Here is the method: Flies were raised at 21.5 °C on cornmeal medium supplemented with dry yeast. Fly lines bearing UAS-DsRed CAG0 and UAS-DsRed CAG100 were kind gifts of Professor Nancy Bonini (University of Pennsylvania, USA). The gmr-GAL4 fly line was obtained from Bloomington Drosophila Stock Center. […] Pseudopupil assay was performed on 12 day-old adult flies as mentioned previously. Images were captured by SPOT Insight CCD camera controlled by the SPOT Advanced software (Diagnostic instruments Inc.). Image processing was performed using the Adobe Photoshop CS software (Adobe). Each experiment was repeated at least 3 times (n = 10 fly heads), and consistent results were obtained. For viability test of wild-type flies from egg to adult stage, eggs born within 5 hr were collected and cultured in fly food containing 10 or 50 μM of respective peptides at 21.5°C. Viability from egg-to-adult was calculated as the number of adult flies collected divided by the number of eggs examined. Each experiment was repeated for three times (at least 130 eggs were examined in each group). Two batches of independently synthesized peptides were used in the experiments.

Data set [3] has as its system pre-rRNA in DsRed CAG100 flies. Kind of data set: Real-time PCR of pre-rRNA level in fly heads. It is filed as in vivo, Drosophila. The conditions noted are these: 1 μM peptide, 12 day-old adult fly heads. Here is the method:
RNA was extracted from cells or ten 12 day-old adult fly heads by Trizol reagent (Life Technologies), and 1 μg of purified RNA was then used for reverse-transcription using the ImPromII™ Reverse Transcription System (Promega). Random hexamer (Roche) was used as primers in reverse transcription. Taqman gene expression assays were performed on an ABI 7500 Real-time PCR system and data were analyzed as previously described. The following probes were used: pre-45s rRNA (Assay ID: AILJIZM), pre-rRNA (Assay ID: AIMSG5U), Drosophila GAPDH (Assay ID: Dm01841186) and human actin (Assay ID: Hs99999903_m1). Each experiment was repeated at least 3 times.
A general note: Real-time PCR tracks product formation cycle by cycle.

For data set [4], the target named is MJD CAG27 RNA. Kind of data set: Isothermal titration calorimetry binding assay, unexpanded CAG RNA. The conditions noted are these: ITC. Here is the method:
Experiments were carried out using a MicroCal iTC200 isothermal titration calorimeter (GE Healthcare) at 25 °C. Data were analyzed using the Origin® scientific plotting software version 7 (Microcal Software Inc.). All RNAs and peptides were dissolved in binding buffer (20 mM MOPS, pH 7.0; 300 mM NaCl) and 0.7 mM of peptide was titrated into 0.5 µM of RNA for each experiment. The concentration of RNA was estimated with appropriate extinction coefficients at 260 nm on a Nanodrop 2000 (Thermo Scientific). A reference power of 8 μcal/s was used with an initial 0.5 µl of injection of peptide followed by 2 µl for all subsequent titrations points with a 60 sec initial equilibrium delay and 150 sec pause between injections. The samples were stirred at a speed of 1000 rpm throughout the experiment. The thermal titration data were fitted to the ‘one binding site model’ to determine the dissociation constant (KD). Each experiment was repeated at least 3 times with consistent results obtained.
(Isothermal titration calorimetry measures the heat released or taken up as one component is titrated into another.)

In data set [5] the test system is DsRed CAG100 Drosophila. Kind of data set: Pseudopupil assay of retinal degeneration. The data set is classed as in vivo. The conditions noted are these: 1 µM peptide fed to third instar larvae for 2 hr in 2% sucrose; 12 day-old adult flies; mean ± S.E.M. Here is the method:
Flies were raised at 21.5 °C on cornmeal medium supplemented with dry yeast. Fly lines bearing UAS-DsRed CAG0 and UAS-DsRed CAG100 were kind gifts of Professor Nancy Bonini (University of Pennsylvania, USA). The gmr-GAL4 fly line was obtained from Bloomington Drosophila Stock Center. For pseudopupil assay, third instar larvae were fed with various amount of respective peptides dissolved in 2% sucrose solution for 2 hr and then continued to culture in standard fly food at 21.5 °C[38]. Pseudopupil assay was performed on 12 day-old adult flies as mentioned previously. Images were captured by SPOT Insight CCD camera controlled by the SPOT Advanced software (Diagnostic instruments Inc.). Image processing was performed using the Adobe Photoshop CS software (Adobe). Each experiment was repeated at least 3 times (n = 10 fly heads), and consistent results were obtained. For viability test of wild-type flies from egg to adult stage, eggs born within 5 hr were collected and cultured in fly food containing 10 or 50 μM of respective peptides at 21.5°C. Viability from egg-to-adult was calculated as the number of adult flies collected divided by the number of eggs examined. Each experiment was repeated for three times (at least 130 eggs were examined in each group). Two batches of independently synthesized peptides were used in the experiments.

“Also recorded” adds a separate entry of the source. Residues, ends and D or L forms follow the SMILES beside them. *: point of attachment. Palmitoyl = CCCCCCCCCCCCCCCC(=O)*

Regarding `CCCCCCCCCCCCCCCC(=O)N[C@@H](CC(=O)O)C(=O)NCC(=O)N[C@@H](CCCCN)C(=O)N[C@@H](CO)C(=O)N[C@@H](CCCCN)C(=O)NCC(=O)N[C@H](C(=O)N[C@@H](C)C(=O)N[C@@H](Cc1ccc(O)cc1)C(=O)N[C@H](C(=O)N[C@@H](CCC(=O)O)C(=O)N[C@@H](Cc1ccccc1)C(=O)N[C@@H](CCCCN)C(N)=O)[C@@H](C)CC)[C@@H](C)CC` [L1P3V8] (Palmitoyl-DGKSKGIAYIEFK-NH2), in data set [1], the egg-to-adult viability result is “did not affect; also recorded: no obvious alteration”. Further, the “toxic effect on control flies” value in data set [2] is “no cytotoxic effects”.
On to Ac-DGKSKGIAYIEFK-NH2 [P3V8], for which the pre-rRNA level result in data set [3] is “fully recovered to the DsRed CAG0 control level”. The molecule also yielded a Kd in data set [4] (0.7 mM P3V8 titrated into 0.5 µM MJD CAG27 RNA, one binding site model, mean ± S.E.M., at least 3 independent experiments) of 2.19 ± 0.27 µM. In data set [4] (MJD CAG27 RNA or MJD CAA/G78 RNA versus MJD CAG78 RNA), the “lower affinity for unexpanded RNA or expanded CAA/G RNA than for expanded CAG RNA” value is given as 6–9 fold. For the same molecule, the pseudopupil score in data set [5] turned out to be 4.32 ± 0.25.

What is called Kd is the equilibrium constant for the complex coming apart. Low values mean higher affinity, high ones lower affinity.

For the origin of these results see PMC5608758, “A brain-targeting lipidated peptide for neutralizing RNA-mediated toxicity in Polyglutamine Diseases” (Scientific Reports, 2017).
